What was measured:
skin fibroblasts = assay: Mitochondrial activity: maximal oxygen consumption rate (OCR), Seahorse XF cell mitochondrial stress test; assay type: cell-based
Description: Specifically, the Seahorse XF Pro analyzer equipment from Agilent was used, and the mitochondrial activity (ATP energy production efficiency), i.e., the maximal oxygen consumption rate (OCR), was observed according to the standard protocol provided with the Seahorse XF cell mitochondrial stress measurement kit provided by the company (FIG. 2).

[1] = system: mitophagy marker genes (VDAC, Parkin, PINK); assay: Expression of mitophagy marker genes (VDAC, Parkin, PINK) by RT-PCR; assay type: cell-based; settings: fibroblasts, hydrocortisone 10 μM and MELASOLV 5.5 μg/ml for 24 hours; FIGS. 3 to 5
Description: Fibroblasts were seeded in 10 cm^2 cell culture dishes at a concentration of 3×10^5 cells/dish and cultured in 10 ml of minimum essential medium eagle (MEM) medium containing 10% fetal bovine serum (FBS) and 1% penicillin streptomycin. After 24 hours, the cells reached approximately 70%, and the cells were treated with (1) DMSO (control), (2) hydrocortisone (10 μM) alone, or (3) hydrocortisone (10 μM) and MELASOLV™ (5.5 μg/ml) for 24 hours.
RNA was extracted with easy-BLUE (INTRON) reagent. cDNA samples were generated from 0.5 μg of RNA using PrimeScript RT reagent Kit. The generated cDNA was amplified using ACCUPOWER™ PCR Premix. The PCR products were further analyzed using PCR Thermal Cycler Dice.
It was confirmed through a […] in the expression of mitophagy marker genes (VDAC, Parkin, PINK) whether it contributes to the activation of mitophagy which removes unnecessary elements from mitochondria.

[2] = hydrocortisone 10 uM 24 hours, MELASOLV 5 ppm 24 hours, FIG. 2

Compound	cell respiration rate (OCR) compared to the control group (Ctrl) (skin fibroblasts; hydrocortisone 10 uM 24 hours alone (stress-induced condition))	maximal respiration (OCR) compared to the control group not treated with anything (skin fibroblasts; [2])	maximal respiration (maximal oxygen consumption rate, OCR) compared to treatment with only hydrocortisone (skin fibroblasts; [2])	cell respiration rate (OCR) reduced by hydrocortisone, effect of treatment (skin fibroblasts; hydrocortisone 10 uM, MELASOLV 5 ppm 24 hours)	expression of mitophagy genes (VDAC, Parkin, PINK) [1]
C[C@]12CCC(=O)C=C1CC[C@@H]1[C@@H]2[C@@H](O)C[C@@]2(C)[C@H]1CC[C@]2(O)C(=O)CO [hydrocortisone, reference compound]	reduced	–	–	–	–
COc1cc(/C=C/C(=O)Oc2cc(C)ccc2C(C)C)cc(OC)c1OC [MELASOLV™, (5-methyl-2-propan-2-ylphenyl) (E)-3-(3,4,5-trimethoxyphenyl) prop-2-enoate]	–	increased higher	statistically significantly higher	recovered	increased

From patent US20250082557A1, “COMPOSITION FOR ENHANCING SKIN VITALITY CONTAINING A THYMOL ESTER-BASED COMPOUND” (Amorepacific Corporation, priority 2023, published 2025)
